`CCc1cc(Nc2ccc([N+](=O)[O-])cc2)n2nccc2n1` displayed a melting point of 158 to 160 °C.

On to `O=NCNC1=Nc2ccc(Br)cc2C(c2ccccn2)=NC1`, for which the melting point lay within 102 to 106 °C.

`Cc1nc(CS(=O)(=O)c2cccc(Cl)c2Cl)no1` had a melting point of 105 to 107 °C.

As for `OC(Cc1cc(-c2ccccc2)on1)N1CCOCC1` (configuration not stated), the melting point lay in the range of 134 to 136 °C.

Turning to `COc1cc(C)c(C(=O)CCCCCCCCCCCCCCCCCO)c(O)c1OC`, the melting point was found to be 101 °C.

Compound `CC(C)(C)OC(=O)NC(CC(=O)NCCC(=O)OCc1ccccc1)C(=O)NCCC(=O)OCc1ccccc1` (configuration not stated) came in with a melting point of 109 to 110 °C.

Compound `O=C(O)CCCCCCCCC(=O)c1ccccc1O` displayed a melting point of 85 to 87 °C.

With `CCC(C)(CC)C(=O)C=C(P(=O)(O)O)P(=O)(O)O`, the melting point was 146 to 147 °C.

Consider `O=C(c1ccc(Br)cc1)c1ncccc1O`, for which the melting point lay within 94 to 95 °C.

The compound `CNc1ncnc2c(NC3OC(CO)C(O)C3O)ncnc12` (configuration not stated) had a melting point of 230 °C.

In the case of `CC[C@H]1[C@H](O)CC(=O)N1c1ccc(C#N)c(C(F)(F)F)c1`, the melting point was in the range of 111 to 112 °C.

In turn, `COC(=O)CC1CC(c2ccc(C(=N)NC(=O)OC(C)(C)C)cn2)=NO1` (configuration not stated) came in with a melting point of 143 °C.

Take `NNc1cc2c(nn1)CCN(C(=O)c1ccc(Br)cc1)C2`: the melting point was in the range of 192 to 195 °C.

Compound `Cc1ccc(Cn2c(-c3ccc(C(O)(C(F)(F)F)C(F)(F)F)cc3)cc3ccccc3c2=O)cc1` displayed a melting point of 267 to 268 °C.

`CCC(CC)c1ccc(N(Cc2ccc(-c3csc(COc4cncc(C(=O)O)c4)n3)cc2)C(C)C)cc1` came in with a melting point of 202 °C.

For `COc1ccccc1C(=O)NCCc1ccc(CC(=O)O)cc1`, the melting point fell in the range of 154 to 155 °C.

The compound `COC[C@@H]1CN(c2nsc3cc(O)ccc23)C(=O)O1` displayed a melting point of 142 to 143 °C.

`CCOC(=O)c1cc(=O)cc(C)o1` registered a melting point of 35 to 38 °C.

Compound `Cc1nc2cccc(OCC(C)(C)NC(=O)C3CCOCC3)c2c(N)c1C(=O)O` showed a melting point of 170 to 173 °C.

Take `COc1ccc(-c2ccc(C(C)=O)cc2N)cc1`: the melting point lay in the range of 152 to 154 °C.

`Cc1ncn(Nc2cccc(Cl)c2)c1C`: the melting point was determined as 146 °C.

In turn, `CCOC(=O)COc1cc(Cl)c2c(=O)c(-c3ccccc3C)coc2c1` came in with a melting point of 122 to 123 °C.

`C[C@]1(CN2CCC(NC(=O)Nc3ccc(C(F)(F)F)cc3)CC2)Cn2cc([N+](=O)[O-])nc2O1` came in with a melting point of 137 to 140 °C.

The compound `COC(=O)c1c(Br)ccc2nn(C)cc12` showed a melting point of 103 to 104 °C.

Turning to `CCCCN(CCCC)c1ccc(C(C#N)=c2ccc(=C(C#N)C#N)cc2)c(OC)c1`, the melting point was 215 to 238 °C.

Compound `O=[N+]([O-])c1cc(S(=O)(=O)NCCO)sc1Cl` returned a melting point of 99 °C.

In turn, `O=C(NCCO)NCCCCC1CCSS1` (configuration not stated) yielded a melting point of 50 to 65 °C.

Consider `CNc1ccc(-c2c[nH]cn2)cc1`, for which the melting point lay in the range of 75 to 76 °C.

Turning to `O=c1c(-c2ccc(O)cc2)coc2cc(O)ccc12`, the melting point lay in the range of 227 to 228 °C.

Take `CC(C)[C@H](NC(=O)[C@H](Cc1ccccc1)NC(=O)OCc1ccccc1)[C@@H](O)c1c(-c2ccccc2)c1=O`: the melting point was 175 to 177 °C.

For `CC12CCC(=O)NC1=CCc1cc(F)ccc12` (configuration not stated), the melting point is 202 °C.

As for `CCC(=O)COc1ccc(CC2SC(=O)N(C(c3ccccc3)(c3ccccc3)c3ccccc3)C2=O)cc1` (configuration not stated), the melting point fell in the range of 155 to 156 °C.

The compound `O=C1NCCc2c(-c3ccc(Cl)c(C(F)(F)F)c3)[nH]c3cccc1c23` had a melting point of 118 to 119 °C.

Take `CNc1nc(S(=O)(=O)Nc2c(Cl)cccc2Cl)n[nH]1`: the melting point lay in the range of 285 to 287 °C.

Regarding `CCNC(=O)N1C(c2ccccc2C(=O)OCC)=NC(=O)C1(C)C(C)C` (configuration not stated), the melting point was 85 to 87 °C.

As for `Oc1cc2c(cc1Sc1ccccc1)OCC2`, the melting point was 80 to 81 °C.

The compound `CNC(=C[N+](=O)[O-])SCc1ccc(CN(C)C)o1` displayed a melting point of 101 to 103 °C.

For the origin of these results see a melting point compilation (Tetko et al.; mined from patent text by program, amines drawn as free bases though some values may be those of a salt).
